Data: PMC10223552 (Pharmaceuticals, 2023)
Read-outs that look alike come from different tables or passages of the source.

Columns and labels:
gpH1R = biological target: T1, gpH1R (Cavia porcellus, UniProt P31389); assay: Ex vivo assay for histamine H1R antagonists on guinea pig ileum stimulated by histamine (+atropine); conditions: gpH1R +Atropine pA2 ± sem, isolated guinea pig ileum, vs histamine, 0.05 µM atropine
T1 construct: from tissue; host or cells: isolated distal ileum of male guinea pigs
Experimental: A second histamine receptor located in the guinea pig ileum is H1R. The antagonistic effect at H1R was measured on the isolated guinea pig ileum stimulated to contractions by histamine. To eliminate the impact of muscarinic receptors located on the tested tissue, 0.05 µM of atropine was added to the Krebs buffer.
(§1) Ex vivo assay for histamine H3R and H1R antagonists were measured on the isolated guinea pig ileum stimulated to contractions by histamine. The pA2-values were calculated according to Arunlakshana and Schild. The radioligand-displacement binding assay was performed in membrane fractions of HEK-293 cells stably expressing hH3R. Cell cultivation and membrane preparation was performed according to Kottke et al.. The Ki values were calculated from the IC50 values using the Cheng–Prusoff equation [37]. The statistical calculations were performed on –log(Ki). […] The inhibitory activities of novel ADS compounds were assessed in spectrophotometric Ellman’s assay using AChE from electric eel (eeAChE) and BuChE from horse serum (eqBuChE).
3.2 Ex vivo assay for histamine H1R receptor antagonists on guinea pig ileum.
Male guinea pigs, weighing 300-400 g were euthanized by a blow to the neck. A 20-30 cm length of the distal ileum, apart from the terminal 5 cm was rapidly removed and placed in phosphate buffer at room temperature (pH […]
Aldrich, St. Louis, MO, USA) (1·10-6 mol/L). The intraluminal content was rinsed and the isolated intestine was cut into 1.5-2 cm segments. The preparations were mounted isotonically in a 20 mL organ bath filled with Krebs […]
a constant load of 0.5 g (Hugo Sachs Hebel-Messvorsatz (Tl-2)/HF-modem; Hugo Sachs Elektronik, Hugstetten, Germany) connected to a pen recorder (Kipp & Zonen BD41, Delft, Holland). During an equilibration period of 40 min, the Krebs buffer was changed every 10 min. The first cumulative concentration-response curve was determined to histamine (Sigma-Aldrich, St. Louis, MO, USA) (10 nM - 10 mM) at increasing concentration spaced by three or 3.3-fold. The second to the fourth (or fifth) curve was measured in the presence of an increasing concentration of antagonist (incubation time 10 min). The pA2-values were calculated according to Arunlakshana and Schild. [Br J Pharmacol Chemother. […] Statistical analysis was carried out with the Students’ t-test. In all tests, a p<0.05 was considered statistically significant. The pA2 values were compared with the affinity

hH3R = biological target: T2, hH3R (Homo sapiens, UniProt Q9Y5N1); assay: biochemical; format: binding
T2 construct: expressed in transfected cells
Experimental: as §1, with “All newly synthesized compounds were evaluated as H3R antagonists/inverse agonists on the guinea pig ileum (gpH3R), stimulated electrically to induce contractions. The distinct affinity profile and species-dependent pharmacology of H3R ligands are known. […] Therefore, to compare species differences, all newly synthesized compounds were subjected to radioligand displacement assay in membrane fractions of HEK-293 cells stably expressing hH3R. […] Ex” for “Ex”
3.3 hH3R radioligand displacement binding assay.
The radioligand displacement binding assay was performed in membrane fractions of HEK-293 cells stably expressing hH3R. Cell cultivation and membrane preparation was performed according to Kottke et al. [T. Kottke, […]
radioligand displacement assay, radioactively labeled [3H]Nα-methylhistamine was used at a final concentration […]
The total assay volume was set to 200 µL. The compounds were tested in several appropriate concentrations between 100 µM and 0.1 nM. Pipetting was partly done by Freedom Evo® (Tecan).
The membrane fraction (20 […]
µg/well), test compounds and radiolabeled ligand were incubated for 90 minutes at 25 °C while shaking. The bound radioligand was separated from the free radioligand by filtration through GF/B filters pre-treated with 0.3 % (m/v) polyethyleneimine using a cell harvester. Radioactivity was determined by liquid scintillation counting using a MicroBeta® Trilux (Perkin Elmer). The data was obtained in duplicates in at least three independent experiments. Non-specific binding was subtracted from the raw data to calculate specific-binding values. The evaluation was performed with GraphPad Prism 6.1 (San Diego, CA, USA) using non-linear regression (one-site competition with a logarithmic scale). The Ki values were calculated from the IC50 values using the Cheng-Prusoff […]
equation. [C. […] The statistical calculations […]
were performed on –log(Ki).

eqBuChE = eqBuChE (Equus caballus, UniProt P81908); assay: biochemical; conditions: for inhibition at 10 µM: read-out: eqBuChE % inh. (10 µM) ± SD; for IC50: read-out: eqBuChE IC50 ± sem
gpH3R = biological target: T3, gpH3R (Cavia porcellus, UniProt Q9JI35); assay: Ex vivo assay for histamine H3R antagonists on electrically stimulated guinea pig ileum
T3 construct: from tissue; host or cells: isolated distal ileum of male guinea pigs
Experimental: All newly synthesized compounds were evaluated as H3R antagonists/inverse agonists on the guinea pig ileum (gpH3R), stimulated electrically to induce contractions. The distinct affinity profile and species-dependent pharmacology of H3R ligands are known. […] Therefore, to compare species differences, all newly synthesized compounds were subjected to radioligand displacement assay in membrane fractions of HEK-293 cells stably expressing hH3R.
as §1
3. Pharmacological assay results.
3.1. Ex vivo assay for histamine H3R receptor antagonists on guinea pig ileum.
Male guinea pigs, weighing 300-400 g were euthanized by a blow to the neck. Following this, a 20-30 cm length of the distal ileum, apart from the terminal 5 cm was rapidly removed and placed in phosphate buffer at room […]
indomethacin (Sigma-Aldrich, St. Louis, MO, USA) (1·10-6 mol/L). The intraluminal content was rinsed and the isolated intestine was cut into 1.5-2 cm segments. The preparations were mounted between two platinum electrodes […]
load of 1.0 g (Hugo Sachs Hebel-Messvorsatz (Tl-2)/HF-modem; Hugo Sachs Elektronik, Hugstetten, Germany) connected to a pen recorder (Kipp & Zonen BD41, Delft, Holland). During an equilibration period of 60 min, the Krebs buffer was changed every 10 min. The preparations were then continuously stimulated at 15-20 V at a frequency of 0.1 Hz for a duration of 0.5 ms, with rectangular-wave electrical pulses (Grass Stimulator S-88; Grass Instruments Co., Quincy, Massachusetts, USA). […] Five minutes […]
before (R)-(−)-α-methylhistamine (RAMH) (Toronto Research Chemicals Inc., North York, Canada), […]
added. The first cumulative concentration-response curve was determined to RAMH (10 nM – 10 mM) at an […]
The second to fourth curve was measured against increasing antagonist concentration (incubation time 20 min). The pA2-values were calculated according to Arunlakshana and Schild. [Br J Pharmacol Chemother. […] Statistical analysis was carried out with the Students’ t-test. In all tests, a p<0.05 was considered statistically significant. The pA2 values were compared with the affinity of thioperamide (Sigma-Aldrich, St. Louis, MO, USA).

eeAChE = biological target: T4, eeAChE (Electrophorus electricus, UniProt O42275); assay: biochemical; parameters: species or system electric eel; conditions: for inhibition at 10 µM: read-out: eeAChE % inh. (10 µM) ± SD
T4 construct: purchased Sigma–Aldrich (Steinheim, Germany)

[1] = hH3R -log(Ki) ± sem, mean ± sem, at least three independent experiments
[2] = mean ± sem, at least three independent experiments, read-out: hH3R -log(Ki) ± sem (converted)
[3] = isolated guinea pig ileum, vs RAMH, read-out: gpH3R pA2 ± sem (converted)

T4 sequence (O42275 24-633): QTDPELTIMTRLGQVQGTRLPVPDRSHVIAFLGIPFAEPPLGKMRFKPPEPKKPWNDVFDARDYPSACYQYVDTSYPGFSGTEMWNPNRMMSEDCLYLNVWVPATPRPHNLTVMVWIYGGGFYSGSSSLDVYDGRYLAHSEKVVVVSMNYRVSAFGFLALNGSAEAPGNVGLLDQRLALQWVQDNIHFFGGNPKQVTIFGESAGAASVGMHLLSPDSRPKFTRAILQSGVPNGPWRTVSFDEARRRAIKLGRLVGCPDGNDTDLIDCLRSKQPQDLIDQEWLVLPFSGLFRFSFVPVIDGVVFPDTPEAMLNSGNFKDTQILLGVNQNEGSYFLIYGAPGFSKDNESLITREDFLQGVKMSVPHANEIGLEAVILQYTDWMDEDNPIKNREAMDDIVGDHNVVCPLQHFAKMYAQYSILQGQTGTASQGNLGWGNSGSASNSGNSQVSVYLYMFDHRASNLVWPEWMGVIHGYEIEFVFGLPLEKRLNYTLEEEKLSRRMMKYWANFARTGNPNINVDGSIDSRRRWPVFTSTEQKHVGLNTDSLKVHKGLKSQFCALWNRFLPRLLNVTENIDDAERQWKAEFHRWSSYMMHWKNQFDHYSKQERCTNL
T3 sequence (Q9JI35 whole entry): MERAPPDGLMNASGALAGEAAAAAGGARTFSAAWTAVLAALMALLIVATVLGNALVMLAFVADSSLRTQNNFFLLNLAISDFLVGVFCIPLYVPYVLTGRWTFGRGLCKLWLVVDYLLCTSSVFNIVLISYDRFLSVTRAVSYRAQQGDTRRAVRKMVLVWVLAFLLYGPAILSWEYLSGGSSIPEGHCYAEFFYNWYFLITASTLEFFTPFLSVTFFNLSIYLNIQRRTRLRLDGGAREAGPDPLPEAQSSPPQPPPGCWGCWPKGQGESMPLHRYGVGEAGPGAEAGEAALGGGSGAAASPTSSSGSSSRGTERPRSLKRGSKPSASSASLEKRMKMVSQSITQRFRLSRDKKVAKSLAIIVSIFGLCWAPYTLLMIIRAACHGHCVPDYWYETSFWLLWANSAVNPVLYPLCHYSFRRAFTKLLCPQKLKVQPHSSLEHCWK
eqBuChE, sequence (P81908 whole entry): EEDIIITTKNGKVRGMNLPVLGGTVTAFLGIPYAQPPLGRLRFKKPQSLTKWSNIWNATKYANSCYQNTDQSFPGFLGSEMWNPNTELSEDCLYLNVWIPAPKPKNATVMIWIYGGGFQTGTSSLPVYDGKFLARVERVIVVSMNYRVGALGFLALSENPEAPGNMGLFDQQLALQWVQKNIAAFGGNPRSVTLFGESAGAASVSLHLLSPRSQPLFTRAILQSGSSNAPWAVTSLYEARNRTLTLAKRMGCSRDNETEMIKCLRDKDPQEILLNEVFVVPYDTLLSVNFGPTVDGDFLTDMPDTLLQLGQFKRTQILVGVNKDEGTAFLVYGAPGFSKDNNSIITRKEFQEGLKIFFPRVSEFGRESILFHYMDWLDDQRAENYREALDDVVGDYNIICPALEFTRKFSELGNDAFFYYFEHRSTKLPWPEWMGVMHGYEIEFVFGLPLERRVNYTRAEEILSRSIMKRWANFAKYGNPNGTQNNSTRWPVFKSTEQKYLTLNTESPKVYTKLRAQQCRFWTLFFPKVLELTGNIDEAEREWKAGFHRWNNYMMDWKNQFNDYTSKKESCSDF
T1 sequence (P31389 whole entry): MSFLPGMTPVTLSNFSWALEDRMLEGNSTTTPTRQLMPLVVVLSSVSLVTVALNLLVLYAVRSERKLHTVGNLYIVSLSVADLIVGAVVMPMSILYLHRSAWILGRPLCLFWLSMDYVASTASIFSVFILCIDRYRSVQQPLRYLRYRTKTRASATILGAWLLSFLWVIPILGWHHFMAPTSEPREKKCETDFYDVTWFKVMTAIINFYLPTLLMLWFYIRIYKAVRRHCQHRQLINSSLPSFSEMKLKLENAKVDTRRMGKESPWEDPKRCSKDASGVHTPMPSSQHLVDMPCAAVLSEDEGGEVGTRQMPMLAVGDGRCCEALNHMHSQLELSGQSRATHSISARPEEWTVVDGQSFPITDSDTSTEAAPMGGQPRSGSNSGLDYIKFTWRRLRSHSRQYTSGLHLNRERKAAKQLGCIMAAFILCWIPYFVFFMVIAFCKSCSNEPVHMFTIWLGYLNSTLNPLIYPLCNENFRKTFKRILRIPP
T2 sequence (Q9Y5N1 whole entry): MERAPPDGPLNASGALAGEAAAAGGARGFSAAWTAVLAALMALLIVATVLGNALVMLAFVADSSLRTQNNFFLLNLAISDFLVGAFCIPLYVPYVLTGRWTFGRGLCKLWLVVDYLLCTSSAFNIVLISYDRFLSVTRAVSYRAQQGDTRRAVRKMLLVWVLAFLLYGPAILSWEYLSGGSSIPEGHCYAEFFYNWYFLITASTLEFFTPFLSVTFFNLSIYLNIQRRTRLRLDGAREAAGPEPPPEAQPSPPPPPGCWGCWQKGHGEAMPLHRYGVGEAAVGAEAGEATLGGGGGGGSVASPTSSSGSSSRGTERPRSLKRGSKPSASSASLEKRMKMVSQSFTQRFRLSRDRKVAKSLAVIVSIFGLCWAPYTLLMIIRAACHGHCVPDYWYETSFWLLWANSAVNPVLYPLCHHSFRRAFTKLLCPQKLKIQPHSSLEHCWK

Compound	Kb (gpH1R) [nM]	Ki (hH3R; [1]) [nM]	inhibition at 10 µM (eqBuChE) [%]	IC50 (eqBuChE) [nM]	Kb (gpH3R) [nM]	inhibition at 10 µM (eeAChE) [%]	Ki (hH3R; [2]) [nM]	gpH3R pA2 ± sem (gpH3R; isolated guinea pig ileum, vs RAMH, 20 min)	Ki (hH3R; hH3R Ki) [nM]	Kb (gpH3R; [3]) [nM]	IC50 (eeAChE; eeAChE IC50 ± sem) [nM]	Kd (hH3R; radioligand used at 2 nM) [nM]
N=C(N)N(CCCCc1ccc(Cl)cc1)CCCN1CCCCC1 [ADS10312]	1380	525	72.6 ± 5.2	3500 ± 100	93.3	22.2 ± 3.9	–	–	–	–	–	–
N=C(N)N(CCCCN1CCN(CCCCCCCOc2ccccc2)CC1)Cc1ccc(C(F)(F)F)cc1 [ADS1020]	871	–	–	–	–	–	437	8.49 ± 0.05	–	–	–	–
N=C(N)N(CCCCN1CCN(CCCCCCCOc2ccc(Cl)cc2)CC1)Cc1ccccc1 [ADS10377]	123	282	84.6 ± 1.5	1900 ± 100	15.1	34.3 ± 2.6	–	–	–	–	–	–
N=C(N)N(CCCCN1CCN(CCCOCCCc2ccc(Cl)cc2)CC1)Cc1ccc(C(F)(F)F)cc1 [ADS10279]	135	1070	67.5 ± 0.5	4800 ± 100	5.25	47.4 ± 1.2	–	–	–	–	–	–
N=C(N)N(CCCCN1CCCCC1)CCCc1ccc(Cl)cc1 [ADS10300]	2510	603	75.2 ± 0.4	2400 ± 100	47.9	40.7 ± 1.8	–	–	–	–	–	–
N=C(NCCCCN1CCCCC1)NCCCc1ccc(Cl)cc1 [ADS10301]	347	191	60.4 ± 0.7	5900 ± 100	22.9	11.3 ± 0.4	–	–	< 200	–	–	–
S=C(NC1CCCCC1)N1CCC(c2cnc[nH]2)CC1 [Thioperamide, reference compound]	–	–	–	–	–	–	–	–	–	1.55	–	–
N=C(NCCCCc1ccc(Cl)cc1)NCCCN1CCCCC1 [ADS10306]	67.6	195	89.4 ± 0.1	1600	47.9	17.8 ± 0.7	–	–	< 200	–	–	–
N=C(N)N(CCCCN1CCN(CCCOCCCc2ccccc2)CC1)Cc1ccccc1 [ADS10349]	347	–	32.4 ± 4.2	–	45.7	6.4 ± 1.3	2510	–	–	–	–	–
N=C(N)N(CCCCN1CCN(CCCOCCCc2ccccc2)CC1)Cc1ccc(C(F)(F)F)cc1 [ADS10350]	269	2690	28.3 ± 3.2	–	–	1 ± 0.2	–	–	–	28.8	–	–
N=C(N)N(CCCCN1CCN(CCCCCCCOc2ccc(Cl)cc2)CC1)Cc1ccc(C(F)(F)F)cc1 [ADS10376]	214	398	71.4 ± 0.6	4900 ± 200	7.08	27.8 ± 5.1	–	–	–	–	–	–
N=C(N)N(CCCc1ccc(Cl)cc1)CCCN1CCCCC1 [ADS10292]	1200	2690	54.3 ± 4.7	8400 ± 200	45.7	50.6 ± 0.8	–	–	–	–	10900	–
N=C(NCCCc1ccc(Cl)cc1)NCCCN1CCCCC1 [ADS10298]	132	537	20.3 ± 0.8	–	–	39.8 ± 2.6	–	–	–	41.7	–	–
N=C(N)N(CCCCN1CCN(CCCOCCCc2ccc(Cl)cc2)CC1)Cc1ccccc1 [ADS10278]	117	–	76.6 ± 1.3	2000 ± 100	14.8	44 ± 0.9	324	–	–	–	–	–
CNCCc1cnc[nH]1 [[3H]Nα-methylhistamine, reference compound]	–	–	–	–	–	–	–	–	–	–	–	3.08
